For this assay, the system named is TNFα. Nature of the assay: LPS induced TNFα response in PBMCs (monocyte/macrophage model). The settings on record: 0.01-100 μM, compared to vehicle control (0.13% DMSO), 100 ng LPS, 24 hours. The format is cell-based, human. As for the experimental part:
Fresh leukoreduction system (LRS) cones of healthy donors aged 18-80 years old were purchased from Oklahoma Blood Institute. PBMCs were isolated from LRS cones using EasySep™ Direct Human PBMC Isolation Kit (cat #19654, StemCell Technologies) as per manufacturer's specifications. 1.5 million PBMCs were seeded in 0.5 ml of RPMI (11835030, Gibco) supplemented with 5% HPL (Millcreek), lx Glutamax (35050061, Gibco), 1×NEAA (11140050, Gibco) and 2 U/ml heparin (25021040030, Sagent Pharmaceuticals) in a 24 well plate and rested overnight. The following day, PBMCs were co-stimulated with 100 ng of lipopolysaccharide (LPS, 00-4976-93, Invitrogen) and different doses RNSA in a volume of 0.5 ml. RNSA doses were prepared in saline (R5201-01, Braun) supplemented with 5% HPL and 2 U/ml heparin. Betamethasone (Cayman, 20363), a positive control, was resuspended in DMSO (D4540, Sigma) and administered to PBMCs at different doses to a final 0.13% DMSO concentration. Vehicle for RNSA was 50% saline and for Betamethasone 0.13% DMSO for a 1 ml reaction. All samples were tested in technical triplicates. Treatment duration was 24 hours for all groups. After 24 hours, the supernatant was collected, spun at 5,000 g for 10 minutes and the cell free supernatant stored at −80 C. To detect TNFα, hTNFα Simple Plex assay quantification was performed on ELLA ELISA based detection method (ProteinSimple).

The results in this text go back to patent publication US20230121245A1, “REGENERATIVE NONSTEROIDAL ANTI-INFLAMMATORY COMPOSITIONS, METHODS OF PRODUCTION, AND METHODS OF USE THEREOF” (CROWN SCIENTIFIC, L.L.C., priority 2021, published 2023).

SMILES strings stand for the structures.

For `C[C@H]1C[C@H]2[C@@H]3CCC4=CC(=O)C=C[C@]4(C)[C@@]3(F)[C@@H](O)C[C@]2(C)[C@@]1(O)C(=O)CO` [Betamethasone], the “attenuation of TNFα response” value was 20-68%.
